Values belong to the molecule of their own block, whether it stands above or below them.
Legend:
[1] = biological target: T1, Tyrosine-protein kinase JAK3 (Homo sapiens) (UniProt P52333); assay: Inhibition of human recombinant JAK3 at 500 nM related to control ULK1
T1 sequence (whole entry): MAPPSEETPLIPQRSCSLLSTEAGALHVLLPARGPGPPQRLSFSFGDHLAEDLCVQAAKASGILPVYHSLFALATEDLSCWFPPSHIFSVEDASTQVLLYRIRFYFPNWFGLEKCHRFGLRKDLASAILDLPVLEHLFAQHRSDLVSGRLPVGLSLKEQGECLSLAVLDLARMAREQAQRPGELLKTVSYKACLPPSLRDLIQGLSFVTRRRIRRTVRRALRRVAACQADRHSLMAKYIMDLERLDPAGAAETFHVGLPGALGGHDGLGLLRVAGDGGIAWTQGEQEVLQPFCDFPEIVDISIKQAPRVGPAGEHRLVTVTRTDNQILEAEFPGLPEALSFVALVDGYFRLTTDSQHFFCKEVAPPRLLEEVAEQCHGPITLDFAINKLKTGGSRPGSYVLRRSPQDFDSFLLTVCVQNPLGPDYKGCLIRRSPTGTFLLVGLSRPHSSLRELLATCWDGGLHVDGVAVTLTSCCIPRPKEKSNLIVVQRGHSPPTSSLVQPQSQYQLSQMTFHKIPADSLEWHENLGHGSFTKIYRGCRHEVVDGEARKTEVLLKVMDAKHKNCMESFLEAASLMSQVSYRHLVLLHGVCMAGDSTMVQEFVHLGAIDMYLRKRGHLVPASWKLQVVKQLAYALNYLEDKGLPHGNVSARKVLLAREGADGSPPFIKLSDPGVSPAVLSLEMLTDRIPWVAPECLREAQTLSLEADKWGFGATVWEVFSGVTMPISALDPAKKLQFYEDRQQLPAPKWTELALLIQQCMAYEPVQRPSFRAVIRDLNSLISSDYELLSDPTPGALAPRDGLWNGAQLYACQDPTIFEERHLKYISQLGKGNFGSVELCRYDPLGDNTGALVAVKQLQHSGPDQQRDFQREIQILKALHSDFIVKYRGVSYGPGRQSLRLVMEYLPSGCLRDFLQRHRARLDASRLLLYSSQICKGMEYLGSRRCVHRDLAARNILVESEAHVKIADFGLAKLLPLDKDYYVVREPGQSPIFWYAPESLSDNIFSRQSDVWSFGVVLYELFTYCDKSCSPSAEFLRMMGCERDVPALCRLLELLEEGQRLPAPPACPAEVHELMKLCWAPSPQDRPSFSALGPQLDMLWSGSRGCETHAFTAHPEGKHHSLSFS

[2] = biological target: High affinity nerve growth factor receptor (Homo sapiens) (UniProt P04629); assay: Inhibition of human recombinant TRKA at 15 nM related to control ULK1
[3] = biological target: T2, Dual specificity tyrosine-phosphorylation-regulated kinase 3 (Homo sapiens) (UniProt O43781); assay: Inhibition of human recombinant DYRK3 at 15 nM related to control ULK1
T2 sequence (whole entry): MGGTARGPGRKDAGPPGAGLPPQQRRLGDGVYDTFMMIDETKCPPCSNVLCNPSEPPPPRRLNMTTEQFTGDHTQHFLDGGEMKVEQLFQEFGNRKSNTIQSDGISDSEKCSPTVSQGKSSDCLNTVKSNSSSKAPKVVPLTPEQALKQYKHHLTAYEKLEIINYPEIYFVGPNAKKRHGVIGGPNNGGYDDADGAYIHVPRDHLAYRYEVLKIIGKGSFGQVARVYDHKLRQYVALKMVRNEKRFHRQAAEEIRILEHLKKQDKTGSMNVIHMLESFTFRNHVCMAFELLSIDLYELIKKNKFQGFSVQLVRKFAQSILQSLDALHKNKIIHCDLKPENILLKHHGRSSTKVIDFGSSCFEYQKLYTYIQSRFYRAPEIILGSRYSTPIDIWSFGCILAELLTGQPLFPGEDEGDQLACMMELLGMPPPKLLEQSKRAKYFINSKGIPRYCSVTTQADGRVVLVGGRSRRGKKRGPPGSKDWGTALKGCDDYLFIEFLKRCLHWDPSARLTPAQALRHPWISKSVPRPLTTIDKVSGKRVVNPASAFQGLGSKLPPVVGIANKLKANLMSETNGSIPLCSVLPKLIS

[4] = biological target: High affinity nerve growth factor receptor (Homo sapiens) (UniProt P04629); assay: Inhibition of human recombinant TRKA at 40 nM in presence of ATP by radiometric assay relative to control
[5] = biological target: T3, Ephrin type-B receptor 4 (Homo sapiens) (UniProt P54760); assay: Inhibition of human recombinant EphB4 at 40 nM related to control ULK1
T3 sequence (whole entry): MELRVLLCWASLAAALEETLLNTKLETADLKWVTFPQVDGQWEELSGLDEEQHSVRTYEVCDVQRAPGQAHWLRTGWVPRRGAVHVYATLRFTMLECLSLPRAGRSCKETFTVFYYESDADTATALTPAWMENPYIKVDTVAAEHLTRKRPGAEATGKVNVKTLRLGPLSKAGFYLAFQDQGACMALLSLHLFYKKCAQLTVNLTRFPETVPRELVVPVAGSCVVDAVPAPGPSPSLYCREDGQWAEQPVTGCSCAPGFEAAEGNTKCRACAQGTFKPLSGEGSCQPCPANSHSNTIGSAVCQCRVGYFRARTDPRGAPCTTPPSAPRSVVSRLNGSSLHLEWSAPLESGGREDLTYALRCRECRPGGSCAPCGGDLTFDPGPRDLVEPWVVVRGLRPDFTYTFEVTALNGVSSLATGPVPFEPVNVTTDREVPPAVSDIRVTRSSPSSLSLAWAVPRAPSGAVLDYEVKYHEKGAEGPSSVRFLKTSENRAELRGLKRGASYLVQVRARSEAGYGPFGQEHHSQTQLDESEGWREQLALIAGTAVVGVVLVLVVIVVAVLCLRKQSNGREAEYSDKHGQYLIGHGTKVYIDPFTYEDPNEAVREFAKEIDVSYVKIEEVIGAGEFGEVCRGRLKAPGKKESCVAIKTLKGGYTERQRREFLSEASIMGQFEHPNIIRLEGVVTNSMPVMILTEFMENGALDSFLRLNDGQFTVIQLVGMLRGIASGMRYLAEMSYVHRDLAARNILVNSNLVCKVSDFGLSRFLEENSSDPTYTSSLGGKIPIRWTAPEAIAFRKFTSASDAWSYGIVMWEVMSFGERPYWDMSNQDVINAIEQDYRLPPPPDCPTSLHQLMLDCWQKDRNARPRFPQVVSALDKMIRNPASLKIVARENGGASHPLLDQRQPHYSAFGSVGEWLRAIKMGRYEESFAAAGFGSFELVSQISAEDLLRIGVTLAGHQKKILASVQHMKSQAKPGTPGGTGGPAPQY

Chain of High affinity nerve growth factor receptor (Homo sapiens) (P04629 33-796 limits assumed): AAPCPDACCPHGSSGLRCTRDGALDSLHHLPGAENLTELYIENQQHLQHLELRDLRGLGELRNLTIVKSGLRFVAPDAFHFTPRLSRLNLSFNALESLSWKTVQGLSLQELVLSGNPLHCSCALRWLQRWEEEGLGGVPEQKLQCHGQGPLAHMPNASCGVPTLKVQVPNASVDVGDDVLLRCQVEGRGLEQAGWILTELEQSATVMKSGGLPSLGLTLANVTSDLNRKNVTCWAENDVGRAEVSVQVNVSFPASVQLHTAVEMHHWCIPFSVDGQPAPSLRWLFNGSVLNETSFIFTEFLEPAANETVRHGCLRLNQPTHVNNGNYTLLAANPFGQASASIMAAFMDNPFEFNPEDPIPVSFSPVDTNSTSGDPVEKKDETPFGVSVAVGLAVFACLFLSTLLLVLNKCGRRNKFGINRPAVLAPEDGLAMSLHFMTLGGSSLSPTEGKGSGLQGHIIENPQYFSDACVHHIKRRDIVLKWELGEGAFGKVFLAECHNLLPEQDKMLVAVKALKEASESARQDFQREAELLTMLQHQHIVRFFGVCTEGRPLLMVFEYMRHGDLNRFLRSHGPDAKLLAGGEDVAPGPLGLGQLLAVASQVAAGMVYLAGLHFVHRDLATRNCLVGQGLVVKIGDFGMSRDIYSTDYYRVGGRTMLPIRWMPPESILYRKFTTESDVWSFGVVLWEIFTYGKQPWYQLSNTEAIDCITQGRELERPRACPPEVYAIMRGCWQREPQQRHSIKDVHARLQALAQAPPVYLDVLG

fold change (FC) [1]: 0.28
SMILES: CNC(=O)c1ccccc1Oc1nc(Nc2cc(OC)c(OC)c(OC)c2)ncc1Br

fold change (FC) [2]: 0 | fold change (FC) [3]: 0.26
SMILES: CC(C)[C@H](NC(=O)c1cc(-c2cnn3cc(-c4ccc(OCCN5CCCCC5)cc4)cnc23)cs1)C(F)(F)F

inhibition [4]: 0% | fold change (FC) [5]: 0
SMILES: O=C(N[C@@H](C1CC1)C(F)(F)F)c1cc(-c2cnn3cc(-c4ccc(F)cc4)cnc23)cs1
